Experiments:
[1] = target: Spike glycoprotein/Angiotensin-converting enzyme 2 (Severe acute respiratory syndrome coronavirus 2) (UniProt Q9BYF1+P0DTC2); experiment: Inhibition of SARS-CoV-2 spike glycoprotein/ His tagged human ACE2 interaction at 100 uM incubated for 1 hr followed by substrate addition and measured after 15 mins by ELISA relative to control; assay type: protein assay
[2] = target: Spike glycoprotein/Angiotensin-converting enzyme 2 (Severe acute respiratory syndrome coronavirus 2, UniProt P0DTC2+Q9BYF1); experiment: Inhibition of SARS-CoV-2 spike glycoprotein/ His tagged human ACE2 interaction incubated for 1 hr followed by substrate addition and measured after 15 mins by ELISA; assay type: protein assay
Spike glycoprotein/Angiotensin-converting enzyme 2, sequence (Q9BYF1 18-805 limits assumed, other chains not shown): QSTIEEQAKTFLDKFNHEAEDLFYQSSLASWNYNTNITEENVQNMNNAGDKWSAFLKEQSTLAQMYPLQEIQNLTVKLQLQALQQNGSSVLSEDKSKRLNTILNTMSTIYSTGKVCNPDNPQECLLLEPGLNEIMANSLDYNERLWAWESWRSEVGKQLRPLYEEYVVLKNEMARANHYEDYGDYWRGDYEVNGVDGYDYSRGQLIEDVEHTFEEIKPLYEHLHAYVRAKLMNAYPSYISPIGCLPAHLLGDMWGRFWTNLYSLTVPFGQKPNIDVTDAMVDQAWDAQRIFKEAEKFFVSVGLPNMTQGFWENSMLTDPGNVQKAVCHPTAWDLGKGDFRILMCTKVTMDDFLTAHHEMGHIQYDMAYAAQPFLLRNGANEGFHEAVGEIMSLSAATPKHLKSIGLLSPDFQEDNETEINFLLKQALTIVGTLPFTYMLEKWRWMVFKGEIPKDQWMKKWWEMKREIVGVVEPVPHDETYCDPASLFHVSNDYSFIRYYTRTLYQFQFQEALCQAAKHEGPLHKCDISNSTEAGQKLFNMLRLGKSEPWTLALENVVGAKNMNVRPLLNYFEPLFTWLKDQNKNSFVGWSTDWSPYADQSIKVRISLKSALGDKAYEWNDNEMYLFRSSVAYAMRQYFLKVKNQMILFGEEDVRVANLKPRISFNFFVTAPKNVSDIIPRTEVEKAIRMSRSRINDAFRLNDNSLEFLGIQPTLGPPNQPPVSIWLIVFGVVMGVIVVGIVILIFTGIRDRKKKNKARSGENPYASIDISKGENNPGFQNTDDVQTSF

Row | SMILES | inhibition [1] | IC50 [2]
1 | C[C@@H](CO)c1ccc(CO)c2ccc(C(=O)O)cc12 | > 50% | 94.4 µM
2 | CC(C)(O)c1ccc(CO)c2ccc(C(=O)O)cc12 | > 50% | 64.5 µM
3 | C[C@@H](CO)c1ccc(C(=O)O)c2ccc(C(=O)O)cc12 | > 50% | 76.1 µM
4 | CC(C)c1ccc(CO)c2ccc(C(=O)O)cc12 | > 50% | 99.1 µM
5 | CC(C)c1ccc(C(=O)O)c2ccc(C(=O)O)cc12 | > 50% | 95.1 µM

From ChEMBL document CHEMBL4840319, “Aromatic Cadinane Sesquiterpenoids from the Fruiting Bodies of Phellinus pini Block SARS-CoV-2 Spike-ACE2 Interaction” (J Nat Prod, 2021)
